Where a name gives a salt, the structure may show the parent alone.

One may read the inhibition as the percentage by which the read-out fell short of the control. The term % inhibition denotes the percentage by which the read-out fell short of the control. Lower therefore signals a response near the control.

The target of one assay is T1, Rat brain protein farnesyltransferase (Rattus norvegicus, UniProt Q02293+Q04631).
T1 construct: The enzyme is purified according to Reiss, Y., et al., Cell, 62: 81-88 (1990), utilizing steps one through three; from tissue; host or cells: rat brain
Put plainly: In vitro inhibition of protein farnesyltransferase, Amersham scintillation proximity assay with biotin-K Ras B fragment. The format is biochemical. The following applies: Inhibition of farnesyltransferase; compound at 1 × 10^−5 M (Table 1). The source says: The ability of the compounds of the invention to inhibit protein farnesyltransferase or protein geranylgeranyltransferase can be measured according to the method of Moores, et al., J. Biol. Chem. 266: 14603 (1991) or the method of Vogt, et al., J. Biol. Chem. 270:660-664 (1995). In addition, procedures for determination of the inhibition of farnesylation of the oncogene protein Ras are described by Goldstein, et al., J. Biol. Chem., 266:15575-15578 (1991) and by Singh in U.S. Pat. No. 5,245,061.
In addition, in vitro inhibition of protein farnesyltransferase may be measured by the following procedure. Rat brain protein farnesyltransferase activity is measured using an Amersham Life Science commercial scintillation proximity assay kit and substituting a biotin-K Ras B fragment (biotin-[…]Ue-Met-CO2H), 0.1 mM final concentration, for the biotin-lamin substrate provided by Amersham. The enzyme is purified according to Reiss, Y., et al., Cell, 62: 81-88 (1990), utilizing steps one through three. […]
The % inhibition of protein farnesyltransferase was determined for representative compounds of the invention.
A general note: SPA uses beads or plates that emit light when radiolabelled molecules are held near them.
Regarding `CC(C)C[C@H](NC(=O)c1ccc(NCc2cnc[nH]2)cc1-c1cccc2ccccc12)C(=O)O` [Example 388, 4-[N-(1H-Imidazol-4-yl)methylamino-2-(1-naphthyl)benzoyl]leucine], the inhibition at 10 µM was above 50%. Regarding `CSCC[C@H](NC(=O)c1ccc(NCc2cnc(-c3ccccc3)[nH]2)cc1-c1ccccc1)C(=O)O` [Example 382, 4-[N-(1-H-2-Phenylimidazole-4-yl)methylamino-2-phenylbenzoyl]-methionine], the inhibition at 10 µM was above 50%.

The same assay, now with this note: Inhibition of farnesyltransferase; compound at 1 × 10^−6 M (Table 2).
As for `CSCC[C@H](NC(=O)c1ccc(CN(C(=O)c2ccccc2)c2cccnc2)cc1-c1ccccc1C)C(=O)O` [Example 569, N-[4-N-Benzoyl-N-pyrid-3-ylaminomethyl-2-(2-methylphenyl)benzoyl]methionine], the “% inhibition at 1 × 10^−6 M” value was determined as 91%. On the same count and under the same terms, as for `CSCC[C@H](NC(=O)c1ccc(CSc2cccnc2)cc1-c1ccccc1C)C(=O)O` [Example 324], the figure is 98%; as for `CSCCC(NC(=O)c1ccc(COc2cccnc2)cc1-c1ccccc1)C(=O)NS(=O)(=O)N1CCOCC1` (centres unmarked) [Example 318, [4-(3-Pyridyloxymethyl)-2-phenylbenzoyl]methionine 1-Morpholinylsulfonimide], 98%; as for `CCNC(=O)CC[C@H](NC(=O)c1ccc(COc2cccnc2)cc1-c1ccccc1C)C(=O)O` [Example 315, (S)-2-N-[4-(3-Pyridyloxymethyl)-2-(2-methylphenyl)benzoyl]amino-4-(N-ethylaminocarbonyl)butanoic Acid], 93%. On the same count and under the same terms, as for `CSCC[C@H](NC(=O)c1ccc(C=Cc2cccnc2)cc1-c1ccccc1C)C(=O)OCOC(=O)C(C)(C)C` [Example 296], the figure is 89%. Still for that read-out and setting: as for `CSCC[C@H](NC(=O)c1ccc(COc2cccnc2)cc1-c1ccccc1)C(=O)OCc1oc(=O)oc1C` [Example 326, [4-(3-Pyridyloxymethyl)-2-phenylbenzoyl]methionine O-Dimethylvinylene Carbonate Ester], the figure is 91%; as for “{4-[2-(Pyrid-3-yl)ethenyl]-2-(2-methylphenyl)benzyl}methionine Butyl Ester [Example 292]”, 36%; as for `CNC(=O)CC[C@H](NC(=O)c1ccc(COc2cccnc2)cc1-c1ccccc1C)C(=O)O` [Example 314, (S)-2-N-[4-(3-Pyridyloxymethyl)-2-(2-methylphenyl)benzoyl]amino-4-(N-methylaminocarbonyl)butanoic Acid], 97%.

The assay is the same for the next values; noted with them: Inhibition of farnesyltransferase; compound at 1 × 10^−6 M (Table 2); read-out: % inhibition at 1 × 10^−6 M.
`CS(=O)(=O)CC[C@H](NC(=O)c1ccc(NC(=O)c2cccnc2)cc1-c1ccccc1)C(=O)O` [Example 203, [4-(3-Pyridylcarbonylamino)-2-phenylbenzoyl]-2-amino-4-(methylsulfonyl)butanoic Acid]: the inhibition at 1 µM was determined as 76%. The same measure, in the same setting: as for `CSCC[C@H](NC(=O)c1ccc(NCc2ncc[nH]2)cc1-c1ccccc1C)C(=O)O` [Example 386, 4-[N-(1-H-Imidazole-2-yl)methylamino-2-(2-methylphenyl)benzoyl]methionine], the figure is above 50%; as for `CSCC[C@H](NC(=O)c1ccc(CN(Cc2ccccc2)c2cccnc2)cc1-c1ccccc1C)C(=O)OCOC(C)=O` [Example 499, Acetoxymethyl N-[4-N-Benzyl-N-pyridin-3-ylaminomethyl-2-(2-methylphenyl)benzoyl]methionine], 98%. For the molecule `CCCC(=O)OC(c1cccnc1)C(OC(=O)CCC)c1ccc(C(=O)N[C@@H](CCS(C)(=O)=O)C(=O)O)c(-c2ccccc2)c1` (some centres unmarked) [Example 223], the inhibition at 1 µM turned out to be 63%. `COC(=O)[C@H](CCSC)NC(=O)c1ccc(CCc2cccnc2)cc1-c1ccccc1` [Example 212, {4-[2-(Pyrid-3-yl)ethyl]-2-phenylbenzoyl}methionine Methyl Ester]: the inhibition at 1 µM was 12%. Same read-out and setting: as for `COC(=O)[C@H](CCSC)NC(=O)c1ccc(NCc2cccnc2)cc1-c1ccccc1` [Example 201, [4-(3-Pyridylmethylamino)-2-phenylbenzoyl]methionine Methyl Ester], the figure is 63%; as for `COC(=O)[C@H](CCSC)NC(=O)c1ccc(/C=C/c2cccnc2)cc1-c1ccccc1` [Example 210, {4-[2-(Pyrid-3-yl)ethenyl]-2-phenylbenzoyl}methionine Methyl Ester], 5%; as for `CSCC[C@H](NC(=O)c1ccc(NCc2cccnc2)cc1-c1ccccc1)C(=O)OCCC(C)C` [Example 193, [4-(3-Pyridylmethylamino)-2-phenylbenzoyl]methionine Isoamyl Ester], 4%. Same read-out and setting: in the case of `CSCC[C@H](NC(=O)c1ccc(NCc2cccnc2)cc1-c1ccccc1C)C(=O)O` [Example 309, [4-(3-Pyridylmethylamino)-2-(2-methylphenyl)benzoyl]methionine] it was 98%; in that of `CSCC[C@H](NC(=O)c1cc(-c2cc(Cl)cc(Cl)c2)c(COc2cccnc2)cc1-c1ccccc1C)C(=O)O` [Example 345], 91%; in that of `CSCC[C@@H](C(=O)O)N(C)C(=O)c1ccc(CNc2cccnc2)cc1-c1ccccc1` [Example 159, [4-(3-Pyridylaminomethyl)-2-phenylbenzoyl]-N-methylmethionine], 84%.

Take `O=C(N[C@H]1CCOC1=O)c1ccc(NCc2cccnc2)cc1-c1ccccc1` [Example 190, [4-(3-Pyridylmethylamino)-2-phenylbenzoyl]homoserine Lactone]: the inhibition at 1 µM turned out to be 4%. Same read-out and setting: as for `CS(=O)(=O)CC[C@H](NC(=O)c1ccc(/C=C/c2cccnc2)cc1-c1ccccc1)C(=O)O` [Example 220, N-{4-[2-(Pyrid-3-yl)ethenyl]-2-phenylbenzoyl]-2-amino-4-(methylsulfonyl)butanoic Acid], the figure is 92%. Still for that read-out and setting: in the case of `CSCC[C@H](NC(=O)c1ccc(OCc2cccnc2)cc1-c1ccccc1)C(=O)O` [Example 240, [4-(3-Pyridylmethyloxy)-2-phenylbenzoyl-]methionine] it was 98%; in that of `CSCC[C@H](NC(=O)c1ccc(CSCc2c[nH]cn2)cc1-c1ccccc1C)C(=O)O` [Example 331, [4-(1H-Imidazol-4-ylmethylthiomethyl)-2-(2-methylphenyl)benzoyl]methionine], 98%.

Still in this assay, the particulars now being: Inhibition of farnesyltransferase; compound at 1 × 10^−8 M (Table 4); read-out: % inhibition at 1 × 10^−8 M.
For `CSCC[C@H](NC(=O)c1cc(CCc2ccccc2)c(COc2cccnc2)cc1-c1ccccc1C)C(=O)O` [Example 922, N-[5-(2-Phenylethyl)-4-(pyrid-3-yloxymethyl)-2-(2-methylphenyl)benzoyl]methionine], the inhibition at 0.01 µM came to 96%.

Turning to `COc1ccccc1-c1cc(NCc2cnc[nH]2)ccc1C(=O)N[C@@H](CC(C)C)C(=O)O` [Example 397], the inhibition at 0.01 µM stood at 50%. The same measure, in the same setting: in the case of `CSCC[C@H](NC(=O)c1ccc(CN(Cc2ccccc2)c2cccnc2)cc1-c1ccccc1C(F)(F)F)C(=O)O` [Example 409, [4-(N-Benzyl-N-3-pyridylaminomethyl)-2-(2-trifluoromethylphenyl)benzoyl]methionine] it was 84%.

Staying with this assay, now noted: read-out: % inhibition at 0.01 μM.
Take `CSCC[C@H](NC(=O)c1ccc(CN(Cc2cccnc2)c2cc(F)cc(F)c2)cc1-c1ccccc1C)C(=O)O` [Example 1287, N-[4-N-(N-3,5-Difluorophenyl-N-(3-pyridylmethyl)aminomethyl)-2-(2-methylphenyl)benzoyl]methionine Lithium Salt]: the inhibition at 0.01 µM stood at 95%. On the same count and under the same terms, in the case of `CSCC[C@H](NC(=O)c1ccc(/C=C(\C#N)c2cccnc2)cc1-c1ccccc1C)C(=O)O` [Example 1076, N-[4-(Z-2-Cyano-2-pyrid-3-ylethenyl)-2-(2-methylphenyl)benzoyl]methionine, Lithium Salt] it was 69%.

The same assay, now with this note: read-out: % inhibition at 1 × 10^−6 M.
Take `CSCC[C@H](NC(=O)c1ccc(/C=C/c2cncc(Br)c2)cc1-c1ccccc1)C(=O)O` [Example 215, {4-[2-(5-Bromopyrid-3-yl)ethenyl]-2-phenylbenzoyl}methionine Sodium Salt]: the inhibition at 1 µM was found to be 82%. Same read-out and setting: in the case of `CSCC[C@H](NC(=O)c1cc(I)c(COc2cccnc2)cc1-c1ccccc1C)C(=O)O` [Example 347] it was 95%.

Still in this assay, the particulars now being: read-out: % inhibition at 1 × 10^−7 M.
`CSCC[C@H](NC(=O)c1ccc(CCc2cncc3ccccc23)cc1-c1ccccc1C)C(=O)O` [Example 492, N-[4-(2-Isoquinolin-4-ylethyl)-2-(2-methylphenyl)benzoyl]methionine Lithium Salt]: the inhibition at 0.1 µM stood at 95%. On the same count and under the same terms, as for `Cc1ccccc1-c1cc(CCc2cnc3ccccc3c2)ccc1C(=O)N[C@@H](CC[S+](C)[O-])C(=O)O` (stereo in doubt) [Example 490, N-[4-(2-Quinolin-3-ylethyl)-2-(2-methylphenyl)benzoyl]-2-amino-4-methylsulfinylbutanoic Acid Lithium Salt], the figure is 70%.

Still in this assay, the particulars now being: read-out: % inhibition at 1 × 10^−8 M.
Turning to `CSCC[C@H](NC(=O)c1ccc(/C=C/c2cnccc2C(O)C23CC4CC(CC(C4)C2)C3)cc1-c1ccccc1C)C(=O)O` (some centres unmarked) [Example 803, Lithium Salt], the inhibition at 0.01 µM is 95%.

The record behind these values is patent US6693123B2 (University of Pittsburgh, priority 1995, dated 2004).
